Laboratory results taken from ChEMBL document CHEMBL5053507, “Oxadiazepinone HBV capsid assembly modulators” (Bioorg Med Chem Lett, 2021).
In brackets after ≈: the same amount, converted by molar mass. One block for each compound: values may come before it.

Legend:
[1] = Half life in Sprague-Dawley rat at 5 mg/kg, po or 1.25 mg/kg, iv; format: ADME, organism-based; details: in vivo
[2] = Volume of distribution at steady state in Mongrel dog at 2.5 mg/kg, po or 1 mg/kg, iv; format: ADME, organism-based, Canis lupus familiaris; details: in vivo
[3] = Cmax in Mongrel dog at 2.5 mg/kg, po; format: ADME, organism-based, Canis lupus familiaris; parameters: dose 2.5 mg/kg, route po; details: in vivo
[4] = Oral bioavailability in Mongrel dog at 2.5 mg/kg; format: ADME, organism-based, Canis lupus familiaris; details: in vivo
[5] = Volume of distribution at steady state in Sprague-Dawley rat at 5 mg/kg, po or 1.25 mg/kg, iv; format: ADME, organism-based; details: in vivo
[6] = Ratio of AUC (0 to 24 hrs) in liver to plasma in Sprague-Dawley rat at 5 mg/kg, po or 1.25 mg/kg, iv; format: ADME, organism-based; details: read-out: Ratio AUC
[7] = Thermodynamic solubility of the compound at pH 7; format: physicochemical; details: buffer, read-out: Therm_solubility
[8] = Tmax in Sprague-Dawley rat at 5 mg/kg, po; format: ADME, organism-based; details: in vivo
[9] = Tmax in Mongrel dog at 2.5 mg/kg, po; format: ADME, organism-based, Canis lupus familiaris; details: in vivo
[10] = Clearance in Mongrel dog at 2.5 mg/kg, po or 1 mg/kg, iv relative to liver blood flow; format: ADME, organism-based, Canis lupus familiaris; details: in vivo
[11] = Clearance in Sprague-Dawley rat at 5 mg/kg, po or 1.25 mg/kg, iv relative to liver blood flow; format: ADME, organism-based; details: in vivo
[12] = Metabolic stability in human liver microsomes assessed as intrinsic clearance; format: ADME, Microsome; details: read-out: CLH
[13] = Oral bioavailability in Sprague-Dawley rat at 5 mg/kg; format: ADME, organism-based; details: in vivo
[14] = Half life in Mongrel dog at 2.5 mg/kg, po or 1 mg/kg, iv; format: ADME, organism-based, Canis lupus familiaris; details: in vivo
[15] = Cmax in Sprague-Dawley rat at 5 mg/kg, po; format: ADME, organism-based; parameters: dose 5 mg/kg, route po; details: in vivo
[16] = AUC (0 to infinity) in Mongrel dog at 2.5 mg/kg, po; format: ADME, organism-based, Canis lupus familiaris; parameters: time infinity, dose 2.5 mg/kg, route po; details: in vivo
[17] = AUC (0 to infinity) in Sprague-Dawley rat at 5 mg/kg, po; format: ADME, organism-based; parameters: time infinity, dose 5 mg/kg, route po; details: in vivo
[18] = Half life in Sprague-Dawley rat at 0.6 mg/kg, iv; format: ADME, organism-based; details: in vivo
[19] = Volume of distribution at steady state in CD1 mouse at 2 mg/kg, iv; format: ADME, organism-based; details: in vivo, read-out: Vdss
[20] = Clearance in CD1 mouse at 2 mg/kg, iv; format: ADME, organism-based; details: in vivo
[21] = Volume of distribution at steady state in Sprague-Dawley rat at 0.6 mg/kg, iv; format: ADME, organism-based; details: in vivo, read-out: Vdss
[22] = Clearance in Sprague-Dawley rat at 0.6 mg/kg, iv; format: ADME, organism-based; details: in vivo
[23] = Half life in CD1 mouse at 2 mg/kg, iv; format: ADME, organism-based; details: in vivo
[24] = Solubility of the compound; format: physicochemical
[25] = Cmax in CD1 mouse at 10 mg/kg, po; format: ADME, organism-based; parameters: dose 10 mg/kg, route po; details: in vivo
Cytochrome P450 [26] = experiment: Inhibition of CYP (unknown origin); format: ADME, protein assay; details: human
Cytochrome P450 [27] = experiment: Induction of CYP (unknown origin); format: ADME, protein assay; details: human
[28] = Half life in CD1 mouse at 10 mg/kg, po or 2.5 mg/kg, iv; format: ADME, organism-based; details: in vivo
[29] = Clearance in CD1 mouse at 10 mg/kg, po or 2.5 mg/kg, iv relative to liver blood flow; format: ADME, organism-based; details: in vivo
[30] = Volume of distribution at steady state in CD1 mouse at 10 mg/kg, po or 2.5 mg/kg, iv; format: ADME, organism-based; details: in vivo
[31] = Tmax in CD1 mouse at 10 mg/kg, po; format: ADME, organism-based; details: in vivo
[32] = target: Core antigen (Hepatitis B virus) (UniProt Q03732); experiment: Modulation of capsid assembly in HBV infected in human HepG2.2.15 cells assessed as fold shift in inhibition of viral DNA replication in presence of 40% normal human serum incubated for 3 days followed by replacement with fresh medium containing compound and measured after 3 days by QuantiGene assay; format: cell-based; details: time 6.0 day
Sequence of Core antigen (Hepatitis B virus) (Q03732 as listed by the source): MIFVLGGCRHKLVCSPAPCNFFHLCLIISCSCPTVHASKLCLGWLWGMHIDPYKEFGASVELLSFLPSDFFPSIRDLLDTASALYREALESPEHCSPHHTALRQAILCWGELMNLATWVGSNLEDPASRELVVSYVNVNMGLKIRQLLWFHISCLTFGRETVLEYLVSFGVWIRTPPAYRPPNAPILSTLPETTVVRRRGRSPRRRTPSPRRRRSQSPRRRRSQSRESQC

[33] = Oral bioavailability in CD1 mouse at 10 mg/kg; format: ADME, organism-based; details: in vivo
[34] = AUC (0 to infinity) in CD1 mouse at 10 mg/kg, po; format: ADME, organism-based; parameters: time infinity, dose 10 mg/kg, route po; details: in vivo

Compound: C[C@@H]1Cc2nn3c(c2CN1C(=O)Nc1ccc(F)c(C#N)c1)C(=O)N(C)O[C@@H](COCC(F)F)C3
half-life ([1]; Sprague-Dawley): 1.8 h
Vdss [2]: 1.2 L/kg
Cmax [3]: 1170 ng/mL
bioavailability [4]: 70%
Vdss [5]: 2 L/kg
Kp [6]: 3.8
solubility thermodynamic [7]: 22 µM (≈ 10.8 µg/mL)
Tmax ([8]; Sprague-Dawley, read-out: Tmax): 1 h
Tmax [9]: 0.75 h
CLH [10]: 9%
CLH [11]: 20%
CLint scaled [12]: < 5 mL/min/kg
bioavailability [13]: 71%
half-life [14]: 5.6 h
Cmax ([15]; Sprague-Dawley, read-out: Cmax): 533 ng/mL
AUC(0-inf) [16]: 10600 ng·h/mL
AUC(0-inf) [17]: 3840 ng·h/mL

Compound: Cc1cc(NC(=O)N2Cc3c(nn4c3C(=O)N(C)O[C@@H](CO)C4)C[C@H]2C)ccc1F
half-life [18]: 0.7 h
Vd [19]: 2.2 L/kg
solubility thermodynamic [7]: > 200 µM
clearance [20]: 39 mL/min/kg
CLint scaled [12]: < 5 mL/min/kg
Vd [21]: 2.1 L/kg
clearance [22]: 47 mL/min/kg
half-life [23]: 1.5 h

Compound: C[C@@H]1Cc2nn3c(c2CN1C(=O)Nc1ccc(F)c(Cl)c1)C(=O)N(C)O[C@@H](CO)C3
solubility thermodynamic [7]: 183 µM (≈ 80.1 µg/mL)
CLint scaled [12]: 11 mL/min/kg

Compound: CN1OC(CO)Cn2nc3c(c2C1=O)CN(C(=O)Nc1ccc(F)c(Cl)c1)CC3 (racemic)
solubility thermodynamic [7]: 183 µM (≈ 77.6 µg/mL)
CLint scaled [12]: 8 mL/min/kg

Compound: C[C@@H]1Cc2nn3c(c2CN1C(=O)Nc1ccc(F)c(C#N)c1)C(=O)N(C)O[C@@H](C(=O)N(C)CC(F)F)C3
solubility thermodynamic [7]: 45 µM (≈ 23.4 µg/mL)
CLint scaled [12]: 14 mL/min/kg

Compound: C[C@@H]1Cc2nn3c(c2CN1C(=O)Nc1ccc(F)c(C#N)c1)C(=O)N(C)O[C@@H](CO)C3
half-life [18]: 0.5 h
Vd [19]: 4 L/kg
solubility thermodynamic [7]: > 200 µM
clearance [20]: 96 mL/min/kg
CLint scaled [12]: < 5 mL/min/kg
Vd [21]: 1.9 L/kg
clearance [22]: 66 mL/min/kg
half-life [23]: 1.2 h

Compound: C[C@@H]1Cc2nn3c(c2CN1C(=O)Nc1ccc(F)c(C(F)(F)F)c1)C(=O)N(C)O[C@@H](CO)C3
half-life [18]: 1.4 h
Vd [19]: 5.3 L/kg
solubility thermodynamic [7]: 172 µM (≈ 81.1 µg/mL)
clearance [20]: 58 mL/min/kg
CLint scaled [12]: 7.2 mL/min/kg
Vd [21]: 2.3 L/kg
clearance [22]: 24 mL/min/kg
half-life [23]: 1.6 h

Compound: C[C@@H]1Cc2nn3c(c2CN1C(=O)Nc1ccc(F)c(C#N)c1)C(=O)N(C)OCC3
solubility thermodynamic [7]: 80 µM (≈ 31.9 µg/mL)
CLint scaled [12]: < 5 mL/min/kg

Compound: C[C@@H]1Cc2nn3c(c2CN1C(=O)Nc1ccc(F)c(Cl)c1)C(=O)N(C)O[C@@H](CN(C)C)C3
solubility thermodynamic [7]: 176 µM (≈ 81.8 µg/mL)
CLint scaled [12]: 19 mL/min/kg

Compound: C[C@@H]1Cc2nn3c(c2CN1C(=O)Nc1ccc(F)c(C#N)c1)C(=O)N(C)O[C@@H](CF)C3
t1/2 ([1]; po, 5 mg/kg): 0.4 h
Vdss [2]: 1.5 L/kg
Cmax [3]: 1310 ng/mL
bioavailability [4]: 79%
Vdss [5]: 2.5 L/kg
solubility thermodynamic [7]: 63 µM (≈ 27.1 µg/mL)
Tmax ([8]; po, 5 mg/kg): 0.5 h
Cmax [25]: 1420 ng/mL
Tmax [9]: 1 h
CLH [10]: 11%
CLH [11]: 93%
CLint scaled [12]: < 5 mL/min/kg
bioavailability [13]: 7.4%
half-life [14]: 5.4 h
inhibition (INH) (Cytochrome P450 [26]): Not Active
Activity (Cytochrome P450 [27]): Not Active
half-life [28]: 7.9 h
Cmax [15]: 20.1 ng/mL
CLH [29]: 21%
Vdss [30]: 6.3 L/kg
Tmax [31]: 0.4 h
AUC(0-inf) [16]: 9550 ng·h/mL
fold change (FC) [32]: 2
bioavailability [33]: 66%
AUC(0-inf) [17]: 71.8 ng·h/mL
AUC(0-inf) [34]: 4340 ng·h/mL

More lines, now with the values ahead:

CLint scaled [12]: 171 mL/min/kg
Compound: CCOC(=O)c1n[nH]c2c1CN(C(=O)Nc1cccc(Cl)c1)CC2

CLint scaled [12]: 33 mL/min/kg
Compound: CON(C)C(=O)c1n[nH]c2c1CN(C(=O)Nc1cccc(Cl)c1)CC2

CLint scaled [12]: 38 mL/min/kg
Compound: O=C(Nc1cccc(Cl)c1)N1CCc2[nH]nc(C(=O)N3CCCCO3)c2C1

solubility thermodynamic [7]: 161 µM (≈ 63.4 µg/mL)
CLint scaled [12]: 31 mL/min/kg
Compound: CN(OCCO)C(=O)c1n[nH]c2c1CN(C(=O)Nc1cccc(Cl)c1)CC2

CLint scaled [12]: 9 mL/min/kg
Compound: CN1O[C@H](CO)Cn2nc3c(c2C1=O)CN(C(=O)Nc1ccc(F)c(Cl)c1)CC3

CLint scaled [12]: 87 mL/min/kg
Compound: CCN(C)C(=O)c1n[nH]c2c1CN(C(=O)Nc1cccc(Cl)c1)CC2

CLint scaled [12]: 192 mL/min/kg
Compound: O=C(Nc1cccc(Cl)c1)N1CCc2[nH]nc(-c3ccccc3)c2C1

CLint scaled [12]: 55 mL/min/kg
Compound: CCON(C)C(=O)c1n[nH]c2c1CN(C(=O)Nc1cccc(Cl)c1)CC2

CLint scaled [12]: 65 mL/min/kg
Compound: CC(C)ON(C)C(=O)c1n[nH]c2c1CN(C(=O)Nc1cccc(Cl)c1)CC2

solubility [24]: 45 µM (≈ 17.2 µg/mL)
Compound: C[C@H]1Cc2[nH]nc(-c3cscn3)c2CN1C(=O)Nc1ccc(F)c(C#N)c1

solubility thermodynamic [7]: 183 µM (≈ 74.3 µg/mL)
CLint scaled [12]: 8 mL/min/kg
Compound: CN(OC1COC1)C(=O)c1n[nH]c2c1CN(C(=O)Nc1cccc(Cl)c1)CC2

CLint scaled [12]: 7 mL/min/kg
Compound: CN1O[C@@H](CO)Cn2nc3c(c2C1=O)CN(C(=O)Nc1ccc(F)c(Cl)c1)CC3

CLint scaled [12]: 214 mL/min/kg
Compound: CCCC(=O)c1n[nH]c2c1CN(C(=O)Nc1cccc(Cl)c1)CC2
